# Test results from patent publication US20170094996A1, “PROCESS FOR REBAUDIOSIDE D” (EPC (BEIJING) NATURAL PRODUCTS CO., LTD., priority 2009, published 2017).
# What was measured:
# [1] = Sensorical analysis of 3 samples steviol-glycosides, trained panel of 6 test persons; type: in vivo, human; conditions: 200 ppm solutions in water, 100 ml, blinded
# Procedure: Trained panel of 6 test persons.
# Samples were prepared as 200 ppm solutions in water (same temperature).
# Each test person received 3 equal glasses with 100 ml of prepared sample. The glasses were denoted with random 3-digit numbers.
# The question asked was: “Can you taste a difference between the samples and if so please describe the difference in plain text”.
# After the tasting period, the panel exchanged the individual opinions and came to following conclusion (the nature of sample was kept hidden until the conclusion was reached): […]
# [2] = compared with stevioside; Phytochemistry 68, 2007, 1855-1863; cited from earlier work
smiles,measurement,setting,value
C=C1C[C@@]23CC[C@H]4[C@@](C)(CCC[C@@]4(C)C(=O)O[C@@H]4O[C@H](CO)[C@@H](O)[C@H](O)[C@H]4O)[C@@H]2CC[C@]1(O[C@@H]1O[C@H](CO)[C@@H](O)[C@H](O[C@@H]2O[C@H](CO)[C@@H](O)[C@H](O)[C@H]2O)[C@H]1O[C@@H]1O[C@H](CO)[C@@H](O)[C@H](O)[C@H]1O)C3 [Rebaudioside A],bitter after taste (panel conclusion),[1],slight bitter after taste
same,sweetness compared with the other samples (panel conclusion),[1],slightly less sweet than the 2 other samples
same,taste quality,[2],better than stevioside
